Assay results from paper PMC10447463, “Data-mining unveils structure–property–activity correlation of viral infectivity enhancing self-assembling peptides” (Nature Communications, 2023).
Several values for one entry are separate records, joined by “and”; a condition that tells them apart may be missing. Identical values can stand only once. Like-named read-outs stand apart in the source and are kept apart here.

Legend:
[1] = Zeta-potential measurement; format: physicochemical; conditions: for Zeta-pot. / mV: zeta potential of peptide, Fig S15 source data
Procedure, shortened: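 Zeta potentials of aggregated peptides come from electrophoretic mobility (Smoluchowski model) in 1 mM KCl after a 1 d RT incubation at 1 mg/mL in PBS, pH 7.4.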

[2] = Turbidity, derived count rate of scattered light; format: physicochemical; conditions: for Log Count Rate: log of derived count rate
Procedure, shortened: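 Samples: 1 mg/mL in PBS pH 7.4 (from DMSO), 1 d at RT, then diluted in 1 mM KCl immediately before measurement. Triplicates, two independent runs averaged.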

[3] = tested on: HIV-1 infection of TZM-bl cells; test: HIV-1 infectivity enhancement assay, β-galactosidase luminescence; format: cell-based; conditions: for Log10 Inf. rel. to EF-C: log10 of HIV-1 infection of TZM-bl cells relative to EF-C, Fig S15 source data; for Log10 Infection Rel EF-C: HIV-1 infection of TZM-bl cells
[4] = β-sheet content by ATR-FT-IR; format: physicochemical
Procedure, shortened: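 Measurements on freeze-dried PNF powders used a diamond ATR element, 64 scans each, with β-sheet fraction derived as previously reported. CR reflects loss of fluorescamine-reactive monomer after 3 kDa ultrafiltration, averaged over triplicates.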

[5] = derived count rate of scattered light, mean, std deviation in next column
[6] = Feb2021, 1.3 µM value relative to virus only (0 µM)
[7] = Feb2021, log10 of infectivity relative to EF-C
[8] = Feb2021, n-fold infectivity relative to EF-C
[9] = Feb2021, unrounded values of the 1.3 µM column
[10] = infectivity class (low / medium / high) of each library peptide, main list in c1-c6, same classes repeated in sub-lists of sequences containing the hydrophobicity/charge patterns P+,H0,P+,H0,P0,H0,P0, P+,H0,P0,H0,P0,H0,P0, P+,H0,P0,H0
[11] = derived count rate from zeta measurement, mean
[12] = infectivity enhancement relative to EF-C (=1), Feb2021 run
[13] = infectivity n-fold relative to virus only, Feb2021 run
[14] = log10 of infectivity relative to EF-C, Feb2021 run
[15] = category 1 or 0 from count rate, key not given
[16] = Feb2021, Log10 of infectivity relative to EF-C
[17] = Feb2021, n-fold enhancement relative to EF-C
[18] = infectivity class (low / medium / high) of the peptide in the sequence-pattern analysis, Fig. S22-A4, class limits not given

Substance | Zeta category ( +1 = if > 4 mV;-1 = if < -4 mV; 0 = -4mV to 4 mV) [1] | Zeta Pot. / mV ([1]; mean, Std Zeta in next column) [mV] | Zeta-pot. / mV [1] [mV] | Zeta Count Rate Category ([2]; category 1/0, no key printed) | Zeta Count Rate / kcps [2, 5] [kcps] | n-fold to virus (Feb2021) [3, 6] | Log10 of Rel to EFC (Feb2021) [3, 7] | Rel-to EFC (Feb-2021) [3, 8] | Absolute Infectivity / RLU /s (Feb2021) [3, 9] [RLU /s] | infectivity [3, 10] | Log10 Inf. rel. to EF-C ([3]; asymmetric std dev errors) | FTIR ß-sheet content/ % ([4]; ATR-FT-IR) | Zeta Pot. / mV ([1]; mean, Std in separate column) [mV] | Zeta Count Rate / kcps [2, 11] [kcps] | Zeta Count Rate Category ([2]; key not given) | Rel-to EFC (Feb-2021) [3, 12] | n-fold to virus (Feb2021) [3, 13] | Log10 of Rel to EFC (Feb2021) [3, 14] | FTIR ß-sheet content/ % [4] [%] | Zeta category ( +1 = if > 4 mV;-1 = if < -4 mV; 0 = -4mV to 4 mV) ([1]; category from zeta potential) | further results
MKFKFQF [DF5 / CK16] | 0 (0 = -4mV to 4 mV) | -3.133 | -3.133 | 1 | 124 | 2.675 | -1.196 | 0.06366 | 1427 | low | -1.196 | 21.97% | – | – | – | – | – | – | – | – | –
CEIEIQINMWQ [TM143] | -1 (-1 = if < -4 mV) | -25.8 | -25.8 | 1 | 1570 | 9.188 | -0.6602 | 0.2187 | 12066.66667 | medium | -0.6602 | 49.9% | -25.8 | 1570 | 1 | 0.2187 | 9.188 | -0.6602 | 49.9 | – | –
CKFKFQF [BL4] | 1 (+1 = if > 4 mV) | 19.73 | 19.73 | 1 | 5303 | 51.79 | – | 1.233 | 20066.66667 | – | 0.09083 | 47% and 47.43% | 19.73 | – | – | – | – | – | 47.43 | 1 (+1 = if > 4 mV) | Log Count Rate ([2]; Fig S8 panels A, C, asymmetric log errors): 3.725; Log Count Rate ([2]; Fig S8 panels B, D): 3.725; Count Rate ([2]; Fig S8 panels B, D, turbidity, derived count rate of scattered light): 5303.37; Zeta Count Rate Category [2, 15]: 1; Zeta Count Rate / kcps ([2]; derived count rate of scattered light, mean, std deviation in separate column): 5303 kcps; Log10 of Rel to EFC (Feb2021) [3, 16]: 0.09083; Rel-to EFC (Feb-2021) [3, 17]: 1.233; n-fold to virus (Feb2021) ([3]; Feb2021 run, infectivity n-fold relative to virus alone): 51.79; Log10 of Rel to EFC (Feb2021) ([3]; Feb2021 run, log10 of infectivity relative to EF-C): 0.09083; Rel-to EFC (Feb-2021) ([3]; Feb2021 run, n-fold infectivity relative to EF-C): 1.233; Rel-to EFC ([3]; Fig S8 panels B, D, infectivity enhancement relative to EF-C): 1.233; n-fold to virus ([3]; Fig S8 panels B, D, infectivity n-fold relative to virus alone): 51.79; infectivity [3, 18]: high
RGDKIKIQI | – | – | – | – | – | – | – | – | – | – | – | – | – | – | – | – | – | – | – | – | Zeta-Pot. ([1]; zeta potential of peptide assemblies): -0.899; Zeta-Potential / mV ([1]; zeta-potential of peptide, source data of Figure 2C): 2.829 mV; Zeta-Potential / mV ([1]; zeta-potential of the peptide assemblies, mean, Figure 3A source data): -0.9 mV; Log10 Count Rate ([2]; Log10 of derived count rate of scattered light (turbidity)): 2.474; Count Rate / kcps ([2]; derived count rate of scattered light at 633 nm, 173°, from zeta-potential measurement, 0.1 mg/mL in 1 mM KCl after 1 d at 1 mg/mL in PBS, turbidity / microscopic aggregation, mean of triplicate): 298 kcps; Log10 Count Rate ([2]; log10 of derived count rate of scattered light (turbidity)): 2.474; Log10 Count Rate ([2]; turbidity, Log10 of derived count rate of scattered light, Figure 3A source data): 2.474; Rel-EFC ([3]; 1.3 µM peptide, infection relative to EF-C (QCKIKQIINMWQ = 1)): 0,02; Log10 Infection Rel EFC ([3]; 1.3 µM peptide, log10 of infection relative to EF-C): -1,81; Log Infectivity ([3]; Fig. S7 panel A (plotted against β-sheet content), Log10 infection relative to EF-C, TZM-bl cells, asymmetric std dev errors): -1.805; Log10 Infection Rel EF-C ([3]; Log10 of infection rate relative to EF-C, Figure 3A source data): -1.81; Log10 Infection Rel EF-C ([3]; infection rate relative to EF-C, log10, data of Figure 2D): -1.805; Log10 Infection Rel EF-C ([3]; infection rate relative to EF-C, log10, source data of Figure 2C): -1.805; b -sheet / % ([4]; Fig. S7 panel A, β-sheet content by ATR-FT-IR): 40.49%
KIKQII [msis21] | -1 (-1 = if < -4 mV) | -12.67 | -12.67 | – | 122 | – | – | 0.004924 | – | – | -2.308 | 39% and 38.67% | -12.67 | 122 | 1 | 0.004924 | 0.2069 | -2.308 | 38.67 | -1 (-1 = if < -4 mV) | Zeta Pot. / mV [1]: -12.67 mV; Zeta Count Rate Category ([2]; category 1 / 0, no key given): 1; Zeta Count Rate Category [2, 15]: 1; Zeta Count Rate / kcps ([2]; derived count rate of scattered light): 122 kcps; Log10 of Rel to EFC (Feb2021) [3, 16]: -2.308; Absolute Infectivity / RLU /s (Feb2021) ([3]; Feb2021, figures match the 1.3 µM column): 100 RLU /s; n-fold to virus (Feb2021) ([3]; Feb2021, infectivity relative to virus only): 0.2069; Rel-to EFC (Feb-2021) [3, 17]: 0.004924; infectivity [3, 18]: low
